Measured values published in patent US9670212B2, “Inhibitors of PI3K-delta and methods of their use and manufacture” (Exelixis, Inc., priority 2010, dated 2017).

target: PI3K delta (Homo sapiens (Human), UniProt O00329); assay: Luciferase-coupled chemiluminescence kinase assay (KinaseGlo, ATP consumption); format: biochemical
Description: Kinase activity and compound inhibition were investigated using one or more of the assay formats described below. The ATP concentrations used in the various assays were approximately equal to or less than the KM for each of the respective kinases. Dose-response experiments were performed using an intra-plate dilution scheme with 10 different inhibitor concentrations in a 384-well microtiter plate. […] Typically N should approximate unity. Curve fitting was performed using XLFit or ActivityBase. Luciferase-Coupled Chemiluminescence Assay Protocol
Kinase activity is measured as the percent of ATP consumed following the kinase reaction using luciferase-luciferin-coupled chemiluminescence. […] Kinase reactions were initiated by combining test compounds, kinase, and ATP in a 20 μL volume (6 μL volume for 1536-well plate). The reaction mixture was incubated at ambient temperature for 2 h. Following the kinase reaction, a 20 μL (or 3 μL for 1536-well plate) aliquot of KinaseGlo (Promega) was added and the chemiluminescence signal measured using an EnVision plate reader (Perkin Elmer).

Chain of PI3K delta (O00329 whole entry): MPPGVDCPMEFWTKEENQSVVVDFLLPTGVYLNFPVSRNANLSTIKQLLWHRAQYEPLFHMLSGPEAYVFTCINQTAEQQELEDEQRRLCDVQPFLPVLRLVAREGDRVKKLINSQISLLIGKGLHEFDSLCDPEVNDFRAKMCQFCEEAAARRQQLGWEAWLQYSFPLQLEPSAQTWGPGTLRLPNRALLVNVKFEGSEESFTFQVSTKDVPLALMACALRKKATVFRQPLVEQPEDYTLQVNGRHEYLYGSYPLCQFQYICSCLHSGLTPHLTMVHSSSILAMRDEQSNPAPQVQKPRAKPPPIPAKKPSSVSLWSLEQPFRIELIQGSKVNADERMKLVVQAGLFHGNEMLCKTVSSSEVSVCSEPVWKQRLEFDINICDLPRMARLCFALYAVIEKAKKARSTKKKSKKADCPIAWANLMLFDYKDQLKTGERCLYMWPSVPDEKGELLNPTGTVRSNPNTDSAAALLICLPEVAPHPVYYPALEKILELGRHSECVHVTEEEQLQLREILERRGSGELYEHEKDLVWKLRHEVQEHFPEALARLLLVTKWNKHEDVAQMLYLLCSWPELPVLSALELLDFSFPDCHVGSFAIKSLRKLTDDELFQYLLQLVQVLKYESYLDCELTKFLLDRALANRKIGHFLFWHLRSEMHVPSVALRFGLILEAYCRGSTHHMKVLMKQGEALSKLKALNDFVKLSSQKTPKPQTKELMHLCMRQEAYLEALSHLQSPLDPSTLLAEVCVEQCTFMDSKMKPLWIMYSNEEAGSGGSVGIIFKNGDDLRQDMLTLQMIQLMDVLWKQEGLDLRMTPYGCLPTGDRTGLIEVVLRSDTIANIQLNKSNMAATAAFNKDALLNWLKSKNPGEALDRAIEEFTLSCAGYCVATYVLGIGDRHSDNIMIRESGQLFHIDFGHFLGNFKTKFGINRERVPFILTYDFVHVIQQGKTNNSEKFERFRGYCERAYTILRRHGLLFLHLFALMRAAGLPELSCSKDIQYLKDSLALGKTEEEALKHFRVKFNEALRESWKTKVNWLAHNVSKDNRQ
Chain of PI3K delta (P27986 whole entry partner): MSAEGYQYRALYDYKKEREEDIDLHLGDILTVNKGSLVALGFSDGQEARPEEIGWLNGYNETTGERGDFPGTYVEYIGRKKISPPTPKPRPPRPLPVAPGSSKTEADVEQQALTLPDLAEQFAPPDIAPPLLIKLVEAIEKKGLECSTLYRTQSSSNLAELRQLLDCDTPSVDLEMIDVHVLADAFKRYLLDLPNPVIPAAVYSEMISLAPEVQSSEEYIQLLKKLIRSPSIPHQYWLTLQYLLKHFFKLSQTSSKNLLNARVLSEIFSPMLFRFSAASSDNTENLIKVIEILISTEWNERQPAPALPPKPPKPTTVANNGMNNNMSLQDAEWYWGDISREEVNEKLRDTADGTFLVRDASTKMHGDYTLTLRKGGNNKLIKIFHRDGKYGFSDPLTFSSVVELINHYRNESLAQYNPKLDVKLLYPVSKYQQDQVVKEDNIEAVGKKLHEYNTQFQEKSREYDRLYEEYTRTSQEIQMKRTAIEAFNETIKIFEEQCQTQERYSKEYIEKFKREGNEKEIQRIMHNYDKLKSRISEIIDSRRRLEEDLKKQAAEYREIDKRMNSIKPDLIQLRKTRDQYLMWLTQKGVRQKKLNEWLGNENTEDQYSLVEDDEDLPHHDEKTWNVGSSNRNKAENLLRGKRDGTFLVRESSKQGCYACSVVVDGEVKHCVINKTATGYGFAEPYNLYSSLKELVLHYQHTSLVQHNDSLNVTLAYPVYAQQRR

First: Cc1cccc2cc(CNC(=O)c3nccnc3N)c(N3CC(C)NC[C@H]3C)nc12 (stereo in doubt) [Compound 123, 3-amino-N-({2-[(2R,5S)-2,5-dimethylpiperazin-1-yl]-8-methylquinolin-3-yl}methyl)pyrazine-2-carboxamide]
Second: Cc1cccc2cc(CNC(=O)c3nccnc3N)c(N3CCC(NCC(=O)N(C)C)C3)nc12 (stereo not shown) [Compound 44, 3-amino-N-{[2-(3-{[2-(dimethylamino)-2-oxoethyl]amino}pyrrolidin-1-yl)-8-methylquinolin-3-yl]methyl}pyrazine-2-carboxamide]
The IC50 of the first is lower: 250 to 500 nM for the first, 500 to 1500 nM for the second.

Compared with Cc1cccc2cc(CSc3ncnc4[nH]cnc34)c(N(C)CC3CCN(C)CC3)nc12 [Compound 1, N,8-dimethyl-N-[(1-methylpiperidin-4-yl)methyl]-3-[(9H-purin-6-ylthio)methyl]quinolin-2-amine], Cc1cccc2cc(CNc3ncnc4[nH]cnc34)c(N(C)CC3CCN(C)CC3)nc12 [Compound 33, N,8-dimethyl-N-[(1-methylpiperidin-4-yl)methyl]-3-[(9H-purin-6-ylamino)methyl]quinolin-2-amine] is lower in IC50: 50 to 250 nM for the first, under 50 nM for the second. The second is the more potent here.

Cc1cccc2cc(Cn3cnc4c(N)ncnc43)c(N(C)CC3CCCN3C)nc12 (stereo not shown) [Compound 2, 3-[(6-amino-9H-purin-9-yl)methyl]-N,8-dimethyl-N-[(1-methylpyrrolidin-2-yl)methyl]quinolin-2-amine] and Cc1cccc2cc(Cn3cnc4c(N)ncnc43)c(N(C)CC3CCCCN3C)nc12 (stereo not shown) [Compound 3, 3-[(6-amino-9H-purin-9-yl)methyl]-N,8-dimethyl-N-[(1-methylpiperidin-2-yl)methyl]quinolin-2-amine] cannot be ordered by IC50: under 50 nM for the first, under 50 nM for the second.

Cc1cccc2cc(Cn3cnc4c(N)ncnc43)c(N(C)CC3CCN(C)CC3)nc12 [Compound 4, 3-[(6-amino-9H-purin-9-yl)methyl]-N,8-dimethyl-N-[(1-methylpiperidin-4-yl)methyl]quinolin-2-amine] and Cc1cccc2cc(CNC(=O)c3nccnc3N)c(N(C)CC3CCN(C)CC3)nc12 [Compound 31, 3-amino-N-[(8-methyl-2-{methyl[(1-methylpiperidin-4-yl)methyl]amino}quinolin-3-yl)methyl]pyrazine-2-carboxamide] cannot be ordered by IC50: under 50 nM for the first, under 50 nM for the second.

Cc1cccc2cc(CNc3cccc4c3OCCO4)c(-c3ccccc3Cl)nc12 [Compound 5] and COc1ccccc1NCc1cc2cccc(C)c2nc1-c1ccccc1Cl [Compound 11, N-{[2-(2-chlorophenyl)-8-methylquinolin-3-yl]methyl}-2-(methyloxy)aniline] fall in the same range of IC50: 500 to 1500 nM for the first, 500 to 1500 nM for the second.

COc1cccc(CNCc2cc3cccc(C)c3nc2-c2ccccc2Cl)c1 [Compound 6, 1-[2-(2-chlorophenyl)-8-methylquinolin-3-yl]-N-{[3-(methyloxy)phenyl]methyl}methanamine] and COc1ccc(OCc2cc3cccc(C)c3nc2-c2ccccc2Cl)cc1 [Compound 16, 2-(2-chlorophenyl)-8-methyl-3-({[4-(methyloxy)phenyl]oxy}methyl)quinoline] fall in the same range of IC50: 500 to 1500 nM for the first, 500 to 1500 nM for the second.

Cc1cccc2cc(COc3ccc4c(c3)OCO4)c(-c3ccccc3Cl)nc12 [Compound 8, 3-[(1,3-benzodioxol-5-yloxy)methyl]-2-(2-chlorophenyl)-8-methylquinoline] and COc1ccc(OC(C)c2cc3cccc(C)c3nc2-c2ccccc2Cl)cc1 (stereo not shown) [Compound 17, 2-(2-chlorophenyl)-8-methyl-3-(1-{[4-(methyloxy)phenyl]oxy}ethyl)quinoline] fall in the same range of IC50: 500 to 1500 nM for the first, 500 to 1500 nM for the second.

Compared with Cc1cccc2cc(CNc3ncnc4[nH]cnc34)c(N3CCN4CCCCC4C3)nc12 (stereo not shown) [Compound 12, N-{[8-methyl-2-(octahydro-2H-pyrido[1,2-a]pyrazin-2-yl)quinolin-3-yl]methyl}-9H-purin-6-amine], Cc1cccc2cc(CNc3ncnc4[nH]cnc34)c(N3CCCCC3)nc12 [Compound 27, N-[(8-methyl-2-piperidin-1-ylquinolin-3-yl)methyl]-9H-purin-6-amine] is higher in IC50: under 50 nM for the first, 50 to 250 nM for the second. The first is the more potent here.

Cc1cccc2cc(Cn3cnc4c(N)ncnc43)c(N3CCc4ccccc4C3)nc12 [Compound 14, 9-{[2-(3,4-dihydroisoquinolin-2(1H)-yl)-8-methylquinolin-3-yl]methyl}-9H-purin-6-amine] and Cc1cccc2cc(CNc3ncnc4[nH]cnc34)c(N3CCc4ccccc4C3)nc12 [Compound 19, N-{[2-(3,4-dihydroisoquinolin-2(1H)-yl)-8-methylquinolin-3-yl]methyl}-9H-purin-6-amine] fall in the same range of IC50: 500 to 1500 nM for the first, 500 to 1500 nM for the second.

CNCCN(C)c1nc2c(C)cccc2cc1CNc1ccc(OC)cc1 [Compound 20, N,N′-dimethyl-N-[8-methyl-3-({[4-(methyloxy)phenyl]amino}methyl)quinolin-2-yl]ethane-1,2-diamine] and CNCCN(C)c1nc2c(C)cccc2cc1COc1ccc(OC)cc1 [Compound 23, N,N′-dimethyl-N-[8-methyl-3-({[4-(methyloxy)phenyl]oxy}methyl)quinolin-2-yl]ethane-1,2-diamine] fall in the same range of IC50: 500 to 1500 nM for the first, 500 to 1500 nM for the second.

CNCCN(C)c1nc2c(C)cccc2cc1CN1CCOCC1 [Compound 21, N,N′-dimethyl-N-[8-methyl-3-(morpholin-4-ylmethyl)quinolin-2-yl]ethane-1,2-diamine] and CNCCN(C)c1nc2c(C)cccc2cc1CNC(=O)C1(C(=O)NC)CC1 [Compound 40, N-methyl-N′-[(8-methyl-2-{methyl[2-(methylamino)ethyl]amino}quinolin-3-yl)methyl]cyclopropane-1,1-dicarboxamide] fall in the same range of IC50: 500 to 1500 nM for the first, 500 to 1500 nM for the second.

Compared with COCCN(C)c1nc2c(C)cccc2cc1CNc1ncnc2[nH]cnc12 [Compound 25, N,8-dimethyl-N-[2-(methyloxy)ethyl]-3-[(9H-purin-6-ylamino)methyl]quinolin-2-amine], CCCCN(C)c1nc2c(C)cccc2cc1CNc1ncnc2[nH]cnc12 [Compound 26, N-butyl-N,8-dimethyl-3-[(9H-purin-6-ylamino)methyl]quinolin-2-amine] is higher in IC50: under 50 nM for the first, 50 to 250 nM for the second.

Cc1cccc2cc(Cn3cnc4c(N)ncnc43)c(N(C)CCN(C)C(=O)Cn3cccn3)nc12 [Compound 28, N-{2-[{3-[(6-amino-9H-purin-9-yl)methyl]-8-methylquinolin-2-yl}(methyl)amino]ethyl}-N-methyl-2-(1H-pyrazol-1-yl)acetamide] and Cc1cccc2cc(Cn3cnc4c(N)ncnc43)c(N(C)CCN(C)C(=O)Cn3ccnn3)nc12 [Compound 34, N-{2-[{3-[(6-amino-9H-purin-9-yl)methyl]-8-methylquinolin-2-yl}(methyl)amino]ethyl}-N-methyl-2-(1H-1,2,3-triazol-1-yl)acetamide] cannot be ordered by IC50: under 50 nM for the first, under 50 nM for the second.

First: CNCCN(C)c1nc2c(C)cccc2cc1-c1nnc(-c2nccnc2N)o1 [Compound 29, N-{3-[5-(3-aminopyrazin-2-yl)-1,3,4-oxadiazol-2-yl]-8-methylquinolin-2-yl}-N,N′-dimethylethane-1,2-diamine]
Second: CNCCN(C)c1nc2c(C)cccc2cc1CNc1ncnc2[nH]cnc12 [Compound 36, N,N′-dimethyl-N-{8-methyl-3-[(9H-purin-6-ylamino)methyl]quinolin-2-yl}ethane-1,2-diamine]
The IC50 of the first is higher: 500 to 1500 nM for the first, under 50 nM for the second. The second is the more potent here.

Cc1cccc2cc(CNC(=O)c3nccnc3N)c(N(C)CC3CCCN(C)C3)nc12 (stereo not shown) [Compound 30, 3-amino-N-[(8-methyl-2-{methyl[(1-methylpiperidin-3-yl)methyl]amino}quinolin-3-yl)methyl]pyrazine-2-carboxamide] and Cc1cccc2cc(CNC(=O)c3nccnc3N)c(N(C)CC3CCCCN3C)nc12 (stereo not shown) [Compound 39, 3-amino-N-[(8-methyl-2-{methyl[(1-methylpiperidin-2-yl)methyl]amino}quinolin-3-yl)methyl]pyrazine-2-carboxamide] cannot be ordered by IC50: under 50 nM for the first, under 50 nM for the second.

Cc1cccc2cc(CNc3ncnc4[nH]cnc34)c(N(C)CC3CCCN(C)C3)nc12 (stereo not shown) [Compound 32, N,8-dimethyl-N-[(1-methylpiperidin-3-yl)methyl]-3-[(9H-purin-6-ylamino)methyl]quinolin-2-amine] and Cc1cccc2cc(CNc3ncnc4[nH]cnc34)c(N(C)CC3CCCCN3C)nc12 (stereo not shown) [Compound 38, N,8-dimethyl-N-[(1-methylpiperidin-2-yl)methyl]-3-[(9H-purin-6-ylamino)methyl]quinolin-2-amine] cannot be ordered by IC50: under 50 nM for the first, under 50 nM for the second.

Cc1cccc2cc(CNc3ncnc4[nH]cnc34)c(N(C)CCN(C)C(=O)Cn3ccnn3)nc12 [Compound 35, N-methyl-N-[2-(methyl{8-methyl-3-[(9H-purin-6-ylamino)methyl]quinolin-2-yl}amino)ethyl]-2-(1H-1,2,3-triazol-1-yl)acetamide] and Cc1cccc2cc(CNC(=O)c3nccnc3N)c(N(C)CCN(C)C(=O)Cn3cnnn3)nc12 [Compound 42, 3-amino-N-{[8-methyl-2-(methyl{2-[methyl(1H-tetrazol-1-ylacetyl)amino]ethyl}amino)quinolin-3-yl]methyl}pyrazine-2-carboxamide] cannot be ordered by IC50: under 50 nM for the first, under 50 nM for the second.

Cc1cccc2cc(CNc3ncnc4[nH]cnc34)c(N3CCNCC3)nc12 [Compound 37, N-[(8-methyl-2-piperazin-1-ylquinolin-3-yl)methyl]-9H-purin-6-amine] and Cc1nc(C)n(CC(=O)N(C)CCN(C)c2nc3c(C)cccc3cc2CNC(=O)c2nccnc2N)n1 [Compound 43, 3-amino-N-({2-[(2-{[(3,5-dimethyl-1H-1,2,4-triazol-1-yl)acetyl](methyl)amino}ethyl)(methyl)amino]-8-methylquinolin-3-yl}methyl)pyrazine-2-carboxamide] cannot be ordered by IC50: under 50 nM for the first, under 50 nM for the second.

With CC(=O)N1CCN(c2nc3ccccc3nc2Nc2cccc(C(N)=O)c2)CC1 [Compound 41, 3-{[3-(4-acetylpiperazin-1-yl)quinoxalin-2-yl]amino}benzamide] the IC50 was 500 to 1500 nM.
